Source: patent publication US11767298B2, “Substituted benzimidazoles as inhibitors of transforming growth factor-β kinase” (Duke University, priority 2016, dated 2023)

Tests used:
TAK1 = target: T1, TAK1 (Homo sapiens, UniProt O43318); assay: Western Blot analysis of PROTAC-treated MDA-MB-231 cells, TAK1; format: cell-based
T1 construct: endogenous in cells; host or cells: MDA-MB-231
Description: TAK1 is an Hsp90 client protein, which is why its expression is likely affected in these samples. […] This effect has previously been described as prozone effect. At high PROTAC concentrations, both E3 ligase and protein are saturated individually with PROTAC, so that the complex of ligase and protein can no longer be formed.

Huh7 cells = assay: Huh7 cell viability / cytotoxicity; format: cell-based, human; conditions: concentrations up to 200 μM
Procedure: Cell-based anti-Plasmodium assays. For liver stage assays, 15,000 HepG2 or 8,000 Huh7 cells/well were added to 384-well microtiter plates using a multichannel pipette (Rainin). […] DMSO was used as the negative control. Following compound incubation at 37° C. for ˜1 hr, harvested luciferase-expressing P. berghei ANKA sporozoites were added to the plates at a density of 3,000 sporozoites/well. P. berghei ANKA sporozoites were obtained from harvesting the salivary glands of infected A. stephensi mosquitoes. The plates were spun for 10 min at 1,000 rpm, and then incubated at 37° C. for ˜45 hrs. […] After ˜45 hours at 37° C., liver cell viability was assessed using CellTiter-Fluor (Promega) and then parasite load was determined using Bright-Glo (Promega). The relative fluorescence and luminescence signal intensity of each well was evaluated with an EnVision System. The luminescence signal in the presence of compounds was normalized to the negative control (DMSO). Dose-response analysis was performed with GraphPad Prism to yield the reported EC50 values.
(§1) Specifically, their ability to inhibit P. berghei infection in two human hepatoma cell lines (HepG2 and Huh7) as well as cytotoxicity against HepG2 and Huh7 cells was determined as described above. Liver cell cytotoxicity was evaluated with two different commercially available assays, one that tests for intracellular protease activity with a fluorescence reporter and another that relies on the luminescent detection of total ATP.

PfPK9 = assay: UBC13 phosphorylation by PfPK9 (ADP luminescence assay); format: biochemical, P. falciparum; conditions: compared to DMSO
Procedure: Recombinant protein expression and enzyme activity assay. Recombinant GST-tagged PfPK9 was expressed in E. coli BL21(DE3) cells, purified to homogeneity, and the GST tag was cleaved with PreScission Protease (GE Healthcare). To test for inhibition of PfPK9, the ADP detection assay ADP-Glo (Promega) was used to determine ATPase activity of PfPK9 in the presence of the PfUBC13 protein substrate when treated with compounds 1 and 5. Approximately 500 nM PfPK9 was incubated with either compound (10 μM or 500 μM) for 5 min at RT in buffer containing 40 mM Tris, pH 7.5, 20 mM MgCl2, 2 mM MnCl2 and 1 mM DTT prior to assay initiation with 100 μM ATP. The assay was performed in white low-volume 384-well plates (Corning #3824) in triplicate. The assay plate was sealed and subsequently incubated for 8 hrs at 37° C. before ADP detection per manufacturer instructions. The final assay volume was 5 μL with a final concentration of 1% DMSO. A negative control was performed in 1% DMSO and heat inactivated PfPK9 (80° C. for 5 min) was used as a positive control. The luminescence intensity in each well was measured on an EnVision system. Data were normalized to the average luminescence signal of the negative control to provide relative ADP concentrations and graphs were constructed in GraphPad Prism. Data analyses were conducted from three independent experiments. […]

P. berghei [1] = assay: Liver stage parasite load, luciferase-expressing P. berghei in HepG2 cells; format: cell-based, Plasmodium berghei ANKA; conditions: HepG2 host cells
Procedure: (§2) Cell-based anti-Plasmodium assays. For liver stage assays, 15,000 HepG2 or 8,000 Huh7 cells/well were added to 384-well microtiter plates using a multichannel pipette (Rainin). After 2 hours at 37° C., compounds (0-100 μM) were added to cells in duplicate or triplicate in a final concentration of 1% DMSO. DMSO was used as the negative control. Following compound incubation at 37° C. for ˜1 hr, harvested luciferase-expressing P. berghei ANKA sporozoites were added to the plates at a density of 3,000 sporozoites/well. P. berghei ANKA sporozoites were obtained from harvesting the salivary glands of infected A. stephensi mosquitoes. The plates were spun for 10 min at 1,000 rpm, and then incubated at 37° C. for ˜45 hrs. […] After ˜45 hours at 37° C., liver cell viability was assessed using CellTiter-Fluor (Promega) and then parasite load was determined using Bright-Glo (Promega). The relative fluorescence and luminescence signal intensity of each well was evaluated with an EnVision System. The luminescence signal in the presence of compounds was normalized to the negative control (DMSO). Dose-response analysis was performed with GraphPad Prism to yield the reported EC50 values.
(§3) Anti-Plasmodium activity was evaluated in the parasite's liver stage using a previously reported high-throughput assay. In this assay, luciferase-expressing P. berghei (murine) parasites are used to infect human hepatoma cells (HepG2) and parasite load is assessed with a luminometer subsequent to evaluating HepG2 viability using a commercially available quantification kit that measures intracellular protease activity.
as §1

[2] = tested on: K63-linked ubiquitination; assay: Western blot for K63-linked ubiquitination in Plasmodium blood stage; format: cell-based, P. falciparum; conditions: 30 μM, 24 hr, blood stage parasites
Procedure: P. falciparum asexual blood-stage culture. P. falciparum 3D7 isolate was maintained under standard conditions in complete culturing medium [10.44 g/L RPMI 1640 (Invitrogen), 5.94 g/L HEPES (Invitrogen), 50 mg/L hypoxanthine (Sigma), 2.02 g/L sodium bicarbonate (Sigma), 5 g/L albuMAX II (Invitrogen), 25 mg/L gentamicin (Sigma), pH 7.2]. Parasite cultures were supplied with human red blood cells (Gulf Coast Regional Blood Center) at 1% hematocrit. To obtain synchronous cultures, Plasmodium parasites (at least 50% parasites were at the early-ring stage) were pelleted at 300×g for 7 min using a low brake setting and treated with 25 volume 5% D-sorbitol (Sigma) at 37° C. for 10 min. Treated parasites were then harvested and washed with 25 volume of complete culturing medium using the aforementioned centrifugation protocol, and diluted with the complete medium to 1% hematocrit to maintain the parasite culture at 37° C. and 5% CO2.
Protein extraction and Western blot for K63-linked ubiquitination in Plasmodium blood stage. […] Total protein lysates were heated in SDS loading buffer for 5 min at 80° C., analyzed on 4-20% Tris-Glycine polyacrylamide gels (Novex, Life Technologies) and subsequently transferred to nitrocellulose membranes. […]

HepG2 cells = assay: HepG2 cell viability / cytotoxicity; format: cell-based, human; conditions: HepG2; concentrations up to 200 μM
Procedure: as §2, §3, §1

P. berghei [3] = assay: Liver stage parasite load, luciferase-expressing P. berghei in Huh7 cells; format: cell-based, Plasmodium berghei ANKA; conditions: Huh7 host cells, read-out: IC50 Liver state (Huh7)
Procedure: as §2, §1

MINK1 = MINK1 (Homo sapiens, UniProt Q8N4C8); assay: Kinase profiling (Dundee), MINK1; format: biochemical
Procedure: (§4) Kinase selectivity profiling. The selectivity profile of HS-206 to inhibit mammalian kinases was tested against a panel of 140 kinases at a single concentration of 10 μM. Tests were performed using a radiolabeld (^33P-ATP) filter-binding assay at the International Centre for Kinase Profiling at the University of Dundee, UK (http://www.kinase-screen.mrc.ac.uk/).
(§5) This panel contains members of all major kinase families, including tyrosine kinases (TK), tyrosine kinase-like (TKL), sterile serine/threonine (STE), and CDK/MAPK/GSK/CLK (CMGC). […] For these kinases, IC50 values were determined (Table 1).

CLK2 = CLK2 (Homo sapiens, UniProt P49760); assay: Kinase profiling (Dundee), CLK2; format: biochemical
Procedure: as §4, §5

GFP-PfPK9 = GFP-PfPK9 (Plasmodium falciparum, UniProt Q8IEG4); assay: ATP-competitive binding assay (ATP-sepharose pull-down, FLECS); conditions: GFP-PfPK9; Kd calculated from EC50 of ATP pull-down dose-response; read-out: Kd, app
Procedure: Primary small-molecule screen. A small-molecule screen was performed similar to a previously reported fluorescence linked enzyme chemoproteomic strategy (FLECS). Briefly, HEK293-GFP-PfPK9 cells were grown in 182-cm^2 tissue culture flasks (Genesee Scientific) and harvested at ˜80% cell confluency. Before assays the culture medium was aspirated, cells were rinsed with ice cold PBS and then they were removed with a cell scraper. Cells were pelleted by centrifugation (2,000 rpm, 4° C., 2 min) and immediately lysed for assays. The pellet was suspended in buffer A (25 mM HEPES, pH 7.4, 150 mM NaCl, 60 mM MgCl2, 1 mM DTT) with 1 μM microcystin, 0.1% Triton X-100 plus a Roche Complete protease inhibitor tablet and then placed on ice for 30 min to facilitate lysis. The supernatant was collected after centrifugation (4,300 rpm, 4° C., 5 min) and used in subsequent screening and titrations experiments. For screening, the supernatant was added to ATP-sepharose beads (1:1) and incubated with agitation at 4° C. for at least 1 hr to allow binding. Following this incubation, the mixture was centrifuged, the ATP resin was washed with 9 column volumes of buffer A with 1 M NaCl and then 9 column volumes of buffer A. The ATP-sepharose medium was reconstituted as a 1:1 slurry with buffer A and then added to 96-well filter plates (50 μL/well) (Corning #3505) using a multichannel pipette (Rainin). The filter plate was on top of black 96-well catch plates (Corning #3915). An ATP dilution series (1-200 mM) was added to each plate as a positive control and DMSO was the negative control. Compounds and controls were all added to 50 μL per well in buffer A. For screening, compounds were tested in singlicate at 500 μM. The final DMSO concentration in every well was 5%. The fluorescence intensity in each well was measured on an EnVision system. Data analyses of screens were carried out in EXCEL (Microsoft, Corp.) and actives were identified as 2×background signal.
All screening positives that were verified with Western blot analysis were purchased from Enamine or Vitas-M laboratory. The purity of compounds 1-5 (shown below) was verified by high-resolution MS (Agilent). Compounds were tested in 8-point dose-response (0-500 μM) experiments in duplicate, essential as described above. The fluorescence intensity in each well was measured using an EnVision system. Dose-response analysis was performed with GraphPad Prism to acquire EC50 values. Determined EC50 values were used to calculate the observed PfPK9 Kd and reported values are the average of 2-3 independent experiments.
Stable cell line generation. The P. falciparum PK9 gene (PlasmoDB accession #PF3D7_1315100) was cloned into the pEGFP-C1 mammalian expression vector (Clontech) in frame with a […] GFP tag. For screening, HEK293 cells were transfected with the resulting PfPK9-pEGFP-C1 vector to generate HEK293-GFP-PfPK9 expressing cells using X-tremeGENE HP transfection reagent (Roche) per the manufacturer instructions. Briefly, the culture medium was replaced at 48 hours post-transfection with medium supplemented with 1 mg/mL G418 sulfate (Life Technologies) to select for stably transfected cells. Following stable cell selection, fluorescence activated cell sorting (FACS) was used to enrich for GFP-PfPK9 expressing cells. Subsequently, FACS sorted HEK293-GFP-PfPK9 cells were cultured with medium supplemented with 0.5 mg/mL G418 sulfate for all following experiments. Protein expression was verified by Western blot analysis probing for anti-GFP and by fluorescence intensity using an EnVision (PerkinElmer) system.
All 14 positive molecules were also tested for their binding affinity to PfPK9 using an optimized ATP-competitive binding assay. EC50 values ranging from low μM to low mM were observed and these EC50 values were used to derive dissociation constants as described previously. […]

GCK = GCK (Homo sapiens, UniProt Q12851); assay: Kinase profiling (Dundee), GCK; format: biochemical
Procedure: as §4, §5

T1 sequence (O43318 whole entry): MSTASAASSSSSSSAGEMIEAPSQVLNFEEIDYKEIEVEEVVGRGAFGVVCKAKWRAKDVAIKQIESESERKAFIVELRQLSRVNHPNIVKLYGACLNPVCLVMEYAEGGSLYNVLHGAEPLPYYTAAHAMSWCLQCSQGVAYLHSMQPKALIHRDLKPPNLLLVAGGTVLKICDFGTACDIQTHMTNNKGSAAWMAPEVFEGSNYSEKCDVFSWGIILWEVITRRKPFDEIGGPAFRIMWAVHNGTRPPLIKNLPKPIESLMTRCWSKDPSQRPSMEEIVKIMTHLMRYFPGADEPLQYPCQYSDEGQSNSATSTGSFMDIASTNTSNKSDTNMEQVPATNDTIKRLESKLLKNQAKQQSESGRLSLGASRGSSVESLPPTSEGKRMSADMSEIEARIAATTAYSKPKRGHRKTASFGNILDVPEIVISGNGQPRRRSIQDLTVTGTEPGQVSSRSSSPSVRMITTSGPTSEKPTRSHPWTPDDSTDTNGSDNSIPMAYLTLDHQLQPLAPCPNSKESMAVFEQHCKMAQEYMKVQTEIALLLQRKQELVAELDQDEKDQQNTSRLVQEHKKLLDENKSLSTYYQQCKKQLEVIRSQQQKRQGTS
Chain of GFP-PfPK9 (Q8IEG4 entry or part of it): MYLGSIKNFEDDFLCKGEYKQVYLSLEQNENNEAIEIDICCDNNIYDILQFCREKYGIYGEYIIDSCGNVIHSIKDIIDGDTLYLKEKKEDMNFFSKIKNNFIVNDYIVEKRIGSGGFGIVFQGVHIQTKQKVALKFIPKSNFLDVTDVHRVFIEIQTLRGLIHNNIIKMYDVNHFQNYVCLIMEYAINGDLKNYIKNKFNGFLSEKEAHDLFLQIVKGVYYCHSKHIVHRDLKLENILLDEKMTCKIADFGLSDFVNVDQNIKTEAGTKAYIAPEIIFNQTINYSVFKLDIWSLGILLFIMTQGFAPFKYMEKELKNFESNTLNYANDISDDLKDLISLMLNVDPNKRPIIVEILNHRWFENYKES
Chain of MINK1 (Q8N4C8 whole entry): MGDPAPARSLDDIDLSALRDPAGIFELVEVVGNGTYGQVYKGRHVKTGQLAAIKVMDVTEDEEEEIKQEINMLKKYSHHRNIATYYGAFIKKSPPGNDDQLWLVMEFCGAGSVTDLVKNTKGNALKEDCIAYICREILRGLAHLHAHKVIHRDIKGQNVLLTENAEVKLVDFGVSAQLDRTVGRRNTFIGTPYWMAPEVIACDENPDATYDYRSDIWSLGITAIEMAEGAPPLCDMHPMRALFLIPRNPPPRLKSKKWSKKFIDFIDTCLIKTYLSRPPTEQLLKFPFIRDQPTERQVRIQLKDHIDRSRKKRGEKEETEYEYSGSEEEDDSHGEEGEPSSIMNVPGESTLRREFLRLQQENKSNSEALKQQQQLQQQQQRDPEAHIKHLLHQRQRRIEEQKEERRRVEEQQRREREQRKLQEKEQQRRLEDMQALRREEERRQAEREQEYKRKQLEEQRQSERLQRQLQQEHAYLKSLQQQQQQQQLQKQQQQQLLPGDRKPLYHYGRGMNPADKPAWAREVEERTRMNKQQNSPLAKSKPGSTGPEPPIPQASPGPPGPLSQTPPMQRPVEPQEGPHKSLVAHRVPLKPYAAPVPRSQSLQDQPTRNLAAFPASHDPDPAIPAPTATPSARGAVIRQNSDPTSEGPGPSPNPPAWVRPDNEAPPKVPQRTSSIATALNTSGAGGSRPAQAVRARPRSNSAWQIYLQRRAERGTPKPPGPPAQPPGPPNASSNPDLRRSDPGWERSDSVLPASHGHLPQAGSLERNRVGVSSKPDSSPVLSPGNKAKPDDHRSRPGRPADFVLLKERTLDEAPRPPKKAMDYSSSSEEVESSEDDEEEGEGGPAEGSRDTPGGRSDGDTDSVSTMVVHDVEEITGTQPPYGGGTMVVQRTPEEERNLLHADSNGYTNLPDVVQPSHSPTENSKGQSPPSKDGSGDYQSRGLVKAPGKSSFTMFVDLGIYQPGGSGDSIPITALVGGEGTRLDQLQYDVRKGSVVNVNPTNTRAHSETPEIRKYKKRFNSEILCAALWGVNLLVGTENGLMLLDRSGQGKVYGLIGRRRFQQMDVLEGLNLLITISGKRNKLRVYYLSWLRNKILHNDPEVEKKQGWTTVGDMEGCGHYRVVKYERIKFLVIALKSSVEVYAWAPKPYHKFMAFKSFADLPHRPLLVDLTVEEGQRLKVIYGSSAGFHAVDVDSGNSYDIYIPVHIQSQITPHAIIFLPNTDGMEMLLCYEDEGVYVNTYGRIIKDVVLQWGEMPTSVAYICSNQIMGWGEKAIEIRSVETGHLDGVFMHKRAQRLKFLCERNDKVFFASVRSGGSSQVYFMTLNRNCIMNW
Chain of GCK (Q12851 whole entry): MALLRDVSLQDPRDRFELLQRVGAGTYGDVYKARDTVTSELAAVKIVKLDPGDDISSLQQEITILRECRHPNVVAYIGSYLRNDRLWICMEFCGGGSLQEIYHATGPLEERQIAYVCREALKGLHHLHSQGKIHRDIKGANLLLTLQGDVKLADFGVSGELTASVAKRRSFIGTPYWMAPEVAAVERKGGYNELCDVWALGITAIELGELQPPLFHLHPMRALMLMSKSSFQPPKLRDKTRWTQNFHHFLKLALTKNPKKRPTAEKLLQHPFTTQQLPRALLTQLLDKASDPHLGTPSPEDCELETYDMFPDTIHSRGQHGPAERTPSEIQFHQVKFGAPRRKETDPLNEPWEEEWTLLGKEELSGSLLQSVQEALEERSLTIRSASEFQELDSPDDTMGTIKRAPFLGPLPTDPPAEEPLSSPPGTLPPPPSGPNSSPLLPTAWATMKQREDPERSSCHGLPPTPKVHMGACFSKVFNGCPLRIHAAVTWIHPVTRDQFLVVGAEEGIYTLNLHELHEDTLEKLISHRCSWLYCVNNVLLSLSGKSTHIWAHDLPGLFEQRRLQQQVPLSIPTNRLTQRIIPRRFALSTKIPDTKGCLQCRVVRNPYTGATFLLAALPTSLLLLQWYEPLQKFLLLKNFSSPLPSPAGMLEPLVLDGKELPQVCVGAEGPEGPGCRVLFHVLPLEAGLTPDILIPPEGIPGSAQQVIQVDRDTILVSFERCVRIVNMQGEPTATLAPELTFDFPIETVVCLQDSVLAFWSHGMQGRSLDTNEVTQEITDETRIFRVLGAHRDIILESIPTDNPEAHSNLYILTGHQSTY
Chain of CLK2 (P49760 whole entry): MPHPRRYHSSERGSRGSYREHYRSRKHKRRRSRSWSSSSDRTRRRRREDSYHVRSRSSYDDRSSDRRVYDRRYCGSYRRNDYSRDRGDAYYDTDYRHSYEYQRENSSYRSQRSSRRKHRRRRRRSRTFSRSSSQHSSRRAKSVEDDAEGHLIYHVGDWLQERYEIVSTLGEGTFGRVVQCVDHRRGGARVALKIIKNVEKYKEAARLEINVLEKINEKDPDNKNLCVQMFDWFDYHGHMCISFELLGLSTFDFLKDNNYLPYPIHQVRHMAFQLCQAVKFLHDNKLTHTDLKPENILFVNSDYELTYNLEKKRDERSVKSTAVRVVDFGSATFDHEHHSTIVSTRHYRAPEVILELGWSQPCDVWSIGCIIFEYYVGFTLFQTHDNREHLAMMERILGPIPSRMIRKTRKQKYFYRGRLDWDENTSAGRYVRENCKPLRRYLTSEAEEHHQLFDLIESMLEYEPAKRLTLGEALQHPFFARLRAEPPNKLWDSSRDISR

In the case of `CCCn1/c(=N/C(=O)c2cccc(C(N)=O)c2)[nH]c2cc(/C=C/C(=O)NCCCOCCOCCOCCOCCOCCCNc3cccc4c3C(=O)N(C3CCC(=O)NC3=O)C4=O)ccc21` (stereo not shown) [HS-237], the “protein levels (TAK1)” value (TAK1; 0.1 μM) is reported as “reduction in protein levels” and the “protein levels (TAK1)” value (TAK1; higher concentrations) is reported as “no effect”.
For `Cc1nc(-c2cccs2)c(CCC(=O)Nc2cccc3cccnc23)s1` [compound 5], the “effect on liver cell viability” value (Huh7 cells) was “neither compound 4 or 5 had any significant effects on cell viability”, the “UBC13 phosphorylation by PfPK9” value (PfPK9) was “significantly decreased” and the IC50 (P. berghei [1]; Plasmodium berghei, HepG2, parasite load) was 10 µM. For the same compound, the IC50 (P. berghei [1]; parasite load) was 9.7 µM, the K63-linked ubiquitination [2] was “decreased K63-linked ubiquitination in blood stage parasites albeit to a lesser extent than compound 1” and the “effect on liver cell viability” value (HepG2 cells) was “neither compound 4 or 5 had any significant effects on cell viability”. For the same compound, the IC50 (P. berghei [3]; Plasmodium berghei, Huh-7, parasite load) was 9 µM and the IC50 (P. berghei [3]; parasite load) was 8.5 µM.
`CCCn1/c(=N/C(=O)c2cccc(C(N)=O)c2)[nH]c2ccccc21` [HS-206 (1), (E)-N-(1-Propyl-1,3-dihydro-2H-benzo[d]imidazol-2-ylidene)isophthalamide] was tested, and the “effect on liver cell viability” value (Huh7 cells) was “did not affect liver cell viability even at 200 μM”, the “effect on liver cell viability” value (HepG2 cells) was “did not affect liver cell viability even at 200 μM” and the IC50 (MINK1) was 1.9 ± 1 µM. The IC50 (CLK2) was 0.43 ± 0.04 µM, the Kd (GFP-PfPK9) was ~0.2 µM and the IC50 (GCK) was 0.43 ± 0.04 µM.
